Measured values: patent US10253039B2, “Inhibitors of bacterial DNA gyrase with efficacy against gram-negative bacteria” (priority 2014, dated 2019)
Converted amounts (≈) assume the structure as drawn.

tested on: E. coli BW25113; test: MIC, microdilution in 96-well plates; type: cell-based; conditions: Escherichia coli, BW25113, B: E. coli BW25113; read-out: MIC
Procedure: (§1) A microdilution method in 96-well plates was used and the MIC protocol established by the Clinical Laboratory Standards Institute was followed. From a growing subculture, a 1:10000 inoculum of each strain in Luria-Bertani media was prepared and aliquoted 100 μL in 4 columns of wells, except for the top row wells, which contained 200 μL of inoculum. A solution of gyramide C2 was aliquoted into 3 of the wells containing 200 μL and DMSO was added to the 4th well. The liquid in each of wells was mixed with a multi-channel pipet and 100 μL was transferred to the next well and mixed. The 2-fold dilution was continued down the 96-well plate until 100 μL was left, which was discarded. The plates were incubated at 37° C. with shaking for 16-18 hours. The MIC was determined as the lowest concentration that inhibited growth and had no turbidity by visual inspection.
(§2) Minimum inhibitory concentrations of various gyramide compounds against 20 strains of bacteria were determined using the procedure described above.

Compound | MIC
O=S(=O)(N[C@@H]1CCN(Cc2ccc(-n3ccnn3)cc2)C1)c1cccc(C(F)(F)F)c1 [Compound 3] | > 8 µg/mL
CC(=O)c1cccc(S(=O)(=O)N[C@@H]2CCN(Cc3ccc(-c4ccccc4)cc3)C2)c1 [Compound 44] | > 8 µg/mL
Cc1c(CN2CC[C@@H](NS(=O)(=O)c3cccc(C#N)c3)C2)cnn1-c1ccccc1 [Compound 30] | > 8 µg/mL
O=S(=O)(N[C@@H]1CCN(Cc2ccc(OCC(F)F)cc2)C1)c1cccc(OC(F)(F)F)c1 [Compound 89] | > 8 µg/mL
O=S(=O)(N[C@@H]1CCN(Cc2ccc(-c3cccc(Cl)c3)cc2)C1)c1cccc(C(F)(F)F)c1 [Compound 50] | > 8 µg/mL

tested on: Edwardsiella tarda; test: MIC, microdilution in 96-well plates; type: cell-based; conditions: D: Edwardsiella tarda
Procedure: as §1, §2

Compound | MIC
O=S(=O)(N[C@@H]1CCN(Cc2ccc(-n3ccnn3)cc2)C1)c1cccc(C(F)(F)F)c1 [Compound 3] | > 8 µg/mL
CC(=O)c1cccc(S(=O)(=O)N[C@@H]2CCN(Cc3ccc(-c4ccccc4)cc3)C2)c1 [Compound 44] | > 8 µg/mL
Cc1c(CN2CC[C@@H](NS(=O)(=O)c3cccc(C#N)c3)C2)cnn1-c1ccccc1 [Compound 30] | > 8 µg/mL
O=S(=O)(N[C@@H]1CCN(Cc2ccc(OCC(F)F)cc2)C1)c1cccc(OC(F)(F)F)c1 [Compound 89] | > 8 µg/mL
O=S(=O)(N[C@@H]1CCN(Cc2ccc(-c3cccc(Cl)c3)cc2)C1)c1cccc(C(F)(F)F)c1 [Compound 50] | > 8 µg/mL

tested on: Staphylococcus aureus subsp. aureus; test: MIC, 20-strain panel; type: cell-based; conditions: H: Staphylococcus aureus subsp. aureus, read-out: MIC
Procedure: as §1, §2

Compound | MIC
O=S(=O)(N[C@@H]1CCN(Cc2ccc(-n3ccnn3)cc2)C1)c1cccc(C(F)(F)F)c1 [Compound 3] | > 8 µg/mL
CC(=O)c1cccc(S(=O)(=O)N[C@@H]2CCN(Cc3ccc(-c4ccccc4)cc3)C2)c1 [Compound 44] | > 8 µg/mL
Cc1c(CN2CC[C@@H](NS(=O)(=O)c3cccc(C#N)c3)C2)cnn1-c1ccccc1 [Compound 30] | > 8 µg/mL
O=S(=O)(N[C@@H]1CCN(Cc2ccc(OCC(F)F)cc2)C1)c1cccc(OC(F)(F)F)c1 [Compound 89] | > 8 µg/mL
O=S(=O)(N[C@@H]1CCN(Cc2ccc(-c3cccc(Cl)c3)cc2)C1)c1cccc(C(F)(F)F)c1 [Compound 50] | 8 µg/mL (≈ 16.2 µM)

tested on: Streptococcus pyogenes; test: MIC, 20-strain panel; type: cell-based; conditions: not given
Procedure: as §1, §2

Compound | MIC
O=S(=O)(N[C@@H]1CCN(Cc2ccc(-n3ccnn3)cc2)C1)c1cccc(C(F)(F)F)c1 [Compound 3] | > 8 µg/mL
CC(=O)c1cccc(S(=O)(=O)N[C@@H]2CCN(Cc3ccc(-c4ccccc4)cc3)C2)c1 [Compound 44] | > 8 µg/mL
Cc1c(CN2CC[C@@H](NS(=O)(=O)c3cccc(C#N)c3)C2)cnn1-c1ccccc1 [Compound 30] | > 8 µg/mL
O=S(=O)(N[C@@H]1CCN(Cc2ccc(OCC(F)F)cc2)C1)c1cccc(OC(F)(F)F)c1 [Compound 89] | > 8 µg/mL
O=S(=O)(N[C@@H]1CCN(Cc2ccc(-c3cccc(Cl)c3)cc2)C1)c1cccc(C(F)(F)F)c1 [Compound 50] | ~8 µg/mL (≈ 16.2 µM)

tested on: Staphylococcus epidermidis; test: MIC, 20-strain panel; type: cell-based; conditions: not given
Procedure: as §1, §2

Compound | MIC
O=S(=O)(N[C@@H]1CCN(Cc2ccc(-n3ccnn3)cc2)C1)c1cccc(C(F)(F)F)c1 [Compound 3] | > 8 µg/mL
CC(=O)c1cccc(S(=O)(=O)N[C@@H]2CCN(Cc3ccc(-c4ccccc4)cc3)C2)c1 [Compound 44] | > 8 µg/mL
Cc1c(CN2CC[C@@H](NS(=O)(=O)c3cccc(C#N)c3)C2)cnn1-c1ccccc1 [Compound 30] | > 8 µg/mL
O=S(=O)(N[C@@H]1CCN(Cc2ccc(OCC(F)F)cc2)C1)c1cccc(OC(F)(F)F)c1 [Compound 89] | > 8 µg/mL
O=S(=O)(N[C@@H]1CCN(Cc2ccc(-c3cccc(Cl)c3)cc2)C1)c1cccc(C(F)(F)F)c1 [Compound 50] | 2 µg/mL (≈ 4.04 µM)

tested on: Staphylococcus saprophyticus subsp. saprophyticus; test: MIC, 20-strain panel; type: cell-based; conditions: not given
Procedure: as §1, §2

Compound | MIC
O=S(=O)(N[C@@H]1CCN(Cc2ccc(-n3ccnn3)cc2)C1)c1cccc(C(F)(F)F)c1 [Compound 3] | > 8 µg/mL
CC(=O)c1cccc(S(=O)(=O)N[C@@H]2CCN(Cc3ccc(-c4ccccc4)cc3)C2)c1 [Compound 44] | > 8 µg/mL
Cc1c(CN2CC[C@@H](NS(=O)(=O)c3cccc(C#N)c3)C2)cnn1-c1ccccc1 [Compound 30] | > 8 µg/mL
O=S(=O)(N[C@@H]1CCN(Cc2ccc(OCC(F)F)cc2)C1)c1cccc(OC(F)(F)F)c1 [Compound 89] | > 8 µg/mL
O=S(=O)(N[C@@H]1CCN(Cc2ccc(-c3cccc(Cl)c3)cc2)C1)c1cccc(C(F)(F)F)c1 [Compound 50] | > 8 µg/mL

tested on: Shigella flexneri; test: MIC, 20-strain panel; type: cell-based; conditions: G: Shigella flexneri
Procedure: as §1, §2

Compound | MIC
O=S(=O)(N[C@@H]1CCN(Cc2ccc(-n3ccnn3)cc2)C1)c1cccc(C(F)(F)F)c1 [Compound 3] | > 8 µg/mL
CC(=O)c1cccc(S(=O)(=O)N[C@@H]2CCN(Cc3ccc(-c4ccccc4)cc3)C2)c1 [Compound 44] | > 8 µg/mL
Cc1c(CN2CC[C@@H](NS(=O)(=O)c3cccc(C#N)c3)C2)cnn1-c1ccccc1 [Compound 30] | > 8 µg/mL
O=S(=O)(N[C@@H]1CCN(Cc2ccc(OCC(F)F)cc2)C1)c1cccc(OC(F)(F)F)c1 [Compound 89] | > 8 µg/mL
O=S(=O)(N[C@@H]1CCN(Cc2ccc(-c3cccc(Cl)c3)cc2)C1)c1cccc(C(F)(F)F)c1 [Compound 50] | > 8 µg/mL

tested on: Streptococcus agalactiae; test: MIC, 20-strain panel; type: cell-based; conditions: not given
Procedure: as §1, §2

Compound | MIC
O=S(=O)(N[C@@H]1CCN(Cc2ccc(-n3ccnn3)cc2)C1)c1cccc(C(F)(F)F)c1 [Compound 3] | > 8 µg/mL
CC(=O)c1cccc(S(=O)(=O)N[C@@H]2CCN(Cc3ccc(-c4ccccc4)cc3)C2)c1 [Compound 44] | > 8 µg/mL
Cc1c(CN2CC[C@@H](NS(=O)(=O)c3cccc(C#N)c3)C2)cnn1-c1ccccc1 [Compound 30] | > 8 µg/mL
O=S(=O)(N[C@@H]1CCN(Cc2ccc(OCC(F)F)cc2)C1)c1cccc(OC(F)(F)F)c1 [Compound 89] | > 8 µg/mL
O=S(=O)(N[C@@H]1CCN(Cc2ccc(-c3cccc(Cl)c3)cc2)C1)c1cccc(C(F)(F)F)c1 [Compound 50] | > 8 µg/mL

tested on: Klebsiella pneumoniae subsp. pneumoniae; test: MIC, 20-strain panel; type: cell-based; conditions: E: Klebsiella pneumoniae subsp. pneumoniae
Procedure: as §1, §2

Compound | MIC
O=S(=O)(N[C@@H]1CCN(Cc2ccc(-n3ccnn3)cc2)C1)c1cccc(C(F)(F)F)c1 [Compound 3] | > 8 µg/mL
CC(=O)c1cccc(S(=O)(=O)N[C@@H]2CCN(Cc3ccc(-c4ccccc4)cc3)C2)c1 [Compound 44] | > 8 µg/mL
Cc1c(CN2CC[C@@H](NS(=O)(=O)c3cccc(C#N)c3)C2)cnn1-c1ccccc1 [Compound 30] | > 8 µg/mL
O=S(=O)(N[C@@H]1CCN(Cc2ccc(OCC(F)F)cc2)C1)c1cccc(OC(F)(F)F)c1 [Compound 89] | > 8 µg/mL
O=S(=O)(N[C@@H]1CCN(Cc2ccc(-c3cccc(Cl)c3)cc2)C1)c1cccc(C(F)(F)F)c1 [Compound 50] | > 8 µg/mL

tested on: E. coli JW5503 (deltolC); test: MIC, 20-strain panel; type: cell-based; conditions: Escherichia coli, C: E. coli JW5503 (deltolC)
Procedure: as §1, §2

Compound | MIC
O=S(=O)(N[C@@H]1CCN(Cc2ccc(-n3ccnn3)cc2)C1)c1cccc(C(F)(F)F)c1 [Compound 3] | 4 µg/mL (≈ 8.86 µM)
CC(=O)c1cccc(S(=O)(=O)N[C@@H]2CCN(Cc3ccc(-c4ccccc4)cc3)C2)c1 [Compound 44] | 0.25 µg/mL (≈ 0.575 µM)
Cc1c(CN2CC[C@@H](NS(=O)(=O)c3cccc(C#N)c3)C2)cnn1-c1ccccc1 [Compound 30] | > 8 µg/mL
O=S(=O)(N[C@@H]1CCN(Cc2ccc(OCC(F)F)cc2)C1)c1cccc(OC(F)(F)F)c1 [Compound 89] | 0.5 µg/mL (≈ 1.04 µM)
O=S(=O)(N[C@@H]1CCN(Cc2ccc(-c3cccc(Cl)c3)cc2)C1)c1cccc(C(F)(F)F)c1 [Compound 50] | 8 µg/mL (≈ 16.2 µM)

tested on: Salmonella enterica subsp. enterica typhimurium; test: MIC, 20-strain panel; type: cell-based; conditions: F: Salmonella enterica subsp. enterica Typhimurium
Procedure: as §1, §2

Compound | MIC
O=S(=O)(N[C@@H]1CCN(Cc2ccc(-n3ccnn3)cc2)C1)c1cccc(C(F)(F)F)c1 [Compound 3] | > 8 µg/mL
CC(=O)c1cccc(S(=O)(=O)N[C@@H]2CCN(Cc3ccc(-c4ccccc4)cc3)C2)c1 [Compound 44] | 8 µg/mL (≈ 18.4 µM)
Cc1c(CN2CC[C@@H](NS(=O)(=O)c3cccc(C#N)c3)C2)cnn1-c1ccccc1 [Compound 30] | > 8 µg/mL
O=S(=O)(N[C@@H]1CCN(Cc2ccc(OCC(F)F)cc2)C1)c1cccc(OC(F)(F)F)c1 [Compound 89] | 8 µg/mL (≈ 16.7 µM)
O=S(=O)(N[C@@H]1CCN(Cc2ccc(-c3cccc(Cl)c3)cc2)C1)c1cccc(C(F)(F)F)c1 [Compound 50] | > 8 µg/mL

tested on: E. coli MG1655; test: MIC, 20-strain panel; type: cell-based; conditions: Escherichia coli, MG1655, A: E. coli MG1655; read-out: MIC
Procedure: as §1, §2

Compound | MIC
O=S(=O)(N[C@@H]1CCN(Cc2ccc(-n3ccnn3)cc2)C1)c1cccc(C(F)(F)F)c1 [Compound 3] | > 8 µg/mL
CC(=O)c1cccc(S(=O)(=O)N[C@@H]2CCN(Cc3ccc(-c4ccccc4)cc3)C2)c1 [Compound 44] | > 8 µg/mL
Cc1c(CN2CC[C@@H](NS(=O)(=O)c3cccc(C#N)c3)C2)cnn1-c1ccccc1 [Compound 30] | > 8 µg/mL
O=S(=O)(N[C@@H]1CCN(Cc2ccc(OCC(F)F)cc2)C1)c1cccc(OC(F)(F)F)c1 [Compound 89] | > 8 µg/mL
O=S(=O)(N[C@@H]1CCN(Cc2ccc(-c3cccc(Cl)c3)cc2)C1)c1cccc(C(F)(F)F)c1 [Compound 50] | > 8 µg/mL
